According to ChEMBL document CHEMBL1148272, “3D-QSAR studies on PU3 analogues by comparative molecular field analysis” (Bioorg Med Chem Lett, 2004):

System: MCF7
Experiment: Antiproliferative activity evaluated against MCF-7 cell line
Format: functional, cell-based
Conditions: Homo sapiens

| IC50 [µM] | SMILES |
| --- | --- |
| 2 | C#CCCCn1c(Cc2cc(OC)c(OC)c(OC)c2Cl)nc2c(N)nc(F)nc21 |
| 50.1 | CCCCn1c(Cc2cc(OC)c(OC)c(OC)c2)nc2c(N)ncnc21 |
| 24 | CCCCn1c(Cc2cc(OC)c(OC)c(OC)c2)nc2c(N)nc(F)nc21 |
| 24 | C#CCCCn1c(Cc2cc(OC)c(OC)c(OC)c2)nc2c(N)ncnc21 |
| 64.6 | COCCn1c(Cc2cc(OC)c(OC)c(OC)c2)nc2c(N)nc(F)nc21 |
| 40.7 | COc1cc(Cc2nc3c(N)nc(F)nc3n2CC2CCC2)cc(OC)c1OC |
| 46.8 | CCCn1c(Cc2cc(OC)c(OC)c(OC)c2)nc2c(N)ncnc21 |
| 25.1 | CCCn1c(Cc2cc(OC)c(OC)c(OC)c2)nc2c(N)nc(F)nc21 |
| 15.8 | COc1cc(Cc2nc3c(N)nc(F)nc3n2CCOC(C)C)cc(OC)c1OC |
| 69.2 | COc1cc(Cc2nc3c(N)ncnc3n2CCCC(C)C)cc(OC)c1OC |
| 33.1 | C=CCCn1c(Cc2cc(OC)c(OC)c(OC)c2)nc2c(N)nc(F)nc21 |
| 61.7 | CCCCCn1c(Cc2cc(OC)c(OC)c(OC)c2)nc2c(N)ncnc21 |
| 11 | C#CCCCn1c(Cc2cc(OC)c(OC)c(OC)c2)nc2c(N)nc(F)nc21 |
| 79.4 | CCn1c(Cc2cc(OC)c(OC)c(OC)c2)nc2c(N)ncnc21 |
| 36.3 | CCCCCn1c(Cc2cc(OC)c(OC)c(OC)c2)nc2c(N)nc(F)nc21 |
| 43.7 | CC[C@H](C)Cn1c(Cc2cc(OC)c(OC)c(OC)c2)nc2c(N)nc(F)nc21 |
| 22.9 | COc1cc(Cc2nc3c(N)nc(F)nc3n2CC2CCCO2)cc(OC)c1OC (stereo not given) |
| 25.1 | C#CCCn1c(Cc2cc(OC)c(OC)c(OC)c2)nc2c(N)nc(F)nc21 |
| 64.6 | COCCn1c(Cc2cc(OC)c(OC)c(OC)c2)nc2c(N)ncnc21 |
| 37.2 | CC#CCCn1c(Cc2cc(OC)c(OC)c(OC)c2)nc2c(N)nc(F)nc21 |
| 44.7 | C=CCCCn1c(Cc2cc(OC)c(OC)c(OC)c2)nc2c(N)nc(F)nc21 |

The remaining lines, values behind:

| SMILES | IC50 [µM] |
| --- | --- |
| CCCCn1c(Cc2cc(OC)c(OC)c(OC)c2Cl)nc2c(N)ncnc21 | 19.1 |
| COc1cc(Cc2nc3c(N)ncnc3n2C)cc(OC)c1OC | 70.8 |
| COc1cc(Cc2nc3c(N)ncnc3n2CC(C)C)cc(OC)c1OC | 97.7 |
| COc1cc(Cc2nc3c(N)ncnc3n2CC2CCCO2)cc(OC)c1OC (stereo not given) | 91.2 |
| COc1cc(Cc2nc3c(N)ncnc3n2CC(OC)OC)cc(OC)c1OC | 72.4 |
| CCCCn1c(Cc2cc(OC)c(OC)c(OC)c2Br)nc2c(N)ncnc21 | 25.1 |
| CC/C=C\Cn1c(Cc2cc(OC)c(OC)c(OC)c2)nc2c(N)ncnc21 | 64.6 |
| CCC(C)Cn1c(Cc2cc(OC)c(OC)c(OC)c2)nc2c(N)ncnc21 (stereo not given) | 61.7 |
| C=CCCn1c(Cc2cc(OC)c(OC)c(OC)c2)nc2c(N)ncnc21 | 40.7 |
| COc1cc(Cc2nc3c(N)ncnc3n2CC2(C)CC2)cc(OC)c1OC | 112 |
| CC/C=C/Cn1c(Cc2cc(OC)c(OC)c(OC)c2)nc2c(N)ncnc21 | 46.8 |
| COc1cc(Cc2nc3c(N)ncnc3n2CC2CCC2)cc(OC)c1OC | 45.7 |
| COc1cc(Cc2nc3c(N)nc(F)nc3n2CCOC(C)C)c(Cl)c(OC)c1OC | 5.37 |
| CCCCn1c(Cc2c(Br)c(OC)c(OC)c(OC)c2Br)nc2c(N)ncnc21 | 30.2 |
| C/C=C/Cn1c(Cc2cc(OC)c(OC)c(OC)c2)nc2c(N)ncnc21 | 51.3 |
| CCC(CC)Cn1c(Cc2cc(OC)c(OC)c(OC)c2)nc2c(N)ncnc21 | 158 |
| COc1cc(Cc2nc3c(N)ncnc3n2CC2CCCCC2)cc(OC)c1OC | 39.8 |
| COc1cc(Cc2nc3c(N)ncnc3n2CCOC(C)C)cc(OC)c1OC | 38.9 |
| COc1cc(Cc2nc3c(N)ncnc3n2CC2CC2)cc(OC)c1OC | 75.9 |
